Laboratory results published in patent publication US20110183954A1, “TRICYCLIC 2,4-DIAMINO-L,3,5-TRIAZINE DERIVATIVES USEFUL FOR THE TREATMENT OF CANCER AND MYELOPROLIFERATIVE DISORDERS” (ASTRAZENECA AB, priority 2008, published 2011).

What was measured:
Type in all cases: biochemical
[1] = target: T1, JAK1 (Homo sapiens, UniProt P23458); experiment: Method 1 (JAK1): mobility shift assay on Caliper LC3000 reader; details: 3.5 nM JAK1 enzyme, 5 mM ATP, 90 minutes, room temperature; read-out: IC50 (JAK inhibitory activity, Method 1 (JAK1))
T1 construct: catalytic domain (amino acids 866-1154), GST-tagged, expressed in insect cells; GST; purchased Invitrogen; host or cells: insect cells
Source text: (§1) Janus kinase 1 (JAK1) activity may be determined by measuring the kinase's ability to phosphorylate a tyrosine residue within a peptide substrate using a mobility shift assay on a Caliper LC3000 reader (Caliper, Hopkinton, Mass.), which measures fluorescence of the phosphorylated and unphosphorylated substrate and calculates a ratiometric value to determine percent turnover.
To measure JAK1 kinase activity, a commercially available purified enzyme may be used. The enzyme may be a recombinant human, catalytic domain (amino acids 866-1154), GST-tagged, expressed in insect cells (Invitrogen, Carlsbad, Calif.). After incubation of the kinase with a FITC labeled JAK1 substrate, adenosine triphosphate (ATP), and MgCl2 for 90 minutes at room temperature, the kinase reaction may be stopped by the addition of 36 mM ethylenediaminetetraacetic acid (EDTA). The reaction may be performed in 384 well microtitre plates and the reaction products may be detected using the Caliper LC3000 Reader.

[2] = target: T2, human JAK2 (Homo sapiens, UniProt O60674); experiment: Method 2 (JAK2): mobility shift assay on Caliper LC3000 reader, 5 mM ATP; parameters: human JAK2 (amino acids 831-1132, PLAZA database pAZB0359) expressed in insect cells; GST (N); made in house; host or cells: insect cells; details: 0.3 nM JAK2 enzyme, 90 minutes, read-out: IC50 (JAK inhibitory activity, Method 2 (JAK2))
Source text: as §1, with “Alternatively, Janus” for “Janus”, “2 (JAK2)” for “1 (JAK1)”
(§2) To measure JAK2 kinase activity, an in-house purified enzyme may be used. The enzyme may be a N-terminal GST-tagged, recombinant, human JAK2 (amino acids 831-1132, PLAZA database pAZB0359) expressed in insect cells. After incubation of the kinase with a FAM labeled SRCtide substrate, adenosine triphosphate (ATP), and MgCl2 for 90 minutes at room temperature, the kinase reaction may be stopped by the addition of 36 mM ethylenediaminetetraacetic acid (EDTA). The reaction may be performed in 384 well microtitre plates and the reaction products may be detected using the Caliper LC3000 Reader.
Target sequence in this assay (O60674 831-1132): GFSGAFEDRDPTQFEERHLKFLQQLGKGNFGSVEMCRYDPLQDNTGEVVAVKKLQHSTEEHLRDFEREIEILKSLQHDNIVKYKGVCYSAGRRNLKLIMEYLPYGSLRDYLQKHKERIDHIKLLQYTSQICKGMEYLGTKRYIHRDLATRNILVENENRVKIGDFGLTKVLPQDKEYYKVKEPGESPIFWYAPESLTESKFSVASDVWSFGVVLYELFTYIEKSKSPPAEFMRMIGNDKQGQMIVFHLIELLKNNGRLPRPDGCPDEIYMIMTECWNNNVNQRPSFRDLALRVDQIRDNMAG

[3] = target: T2, human JAK2; experiment: Method 3 (JAK2): mobility shift assay on Caliper LC3000 reader, 15 μM ATP; parameters: human JAK2 (amino acids 831-1132, PLAZA database pAZB0359) expressed in insect cells; GST (N); made in house; host or cells: insect cells; details: 0.5 nM JAK2 enzyme, 90 minutes, read-out: IC50 (JAK inhibitory activity, Method 3 (JAK2))
Method: as §1, with “2 (JAK2)” for “1 (JAK1)”, “was” for “may be”
as §2, with “enzyme was” for “enzyme may be”, “enzyme was” for “enzyme may be a”, “reaction was” for “reaction may be”, “products were” for “products may be”
Target sequence in this assay (O60674 831-1132): as above

[4] = target: T2, human JAK2; experiment: Method 1 (JAK2): Amplified Luminescent Proximity Assay (Alphascreen); parameters: His6 (C); purchased Upstate Biotechnology; host or cells: baculovirus in Sf21 cells; details: 150 pM JAK2 enzyme, 5 mM ATP, 60 minutes, room temperature, read-out: IC50 (JAK inhibitory activity, Method 1 (JAK2))
Source text: JAK2 kinase activity may be determined by measuring the kinase's ability to phosphorylate synthetic tyrosine residues within a generic polypeptide substrate using an Amplified Luminescent Proximity Assay (Alphascreen) technology (PerkinElmer, 549 Albany Street, Boston, Mass.).
To measure JAK2 kinase activity, a commercially available purified enzyme may be used. The enzyme may be a C-terminal His6-tagged, recombinant, human JAK2, amino acids 808-end, (Genbank Accession number NM 004972) expressed by baculovirus in Sf21 cells (Upstate Biotechnology MA). After incubation of the kinase with a biotinylated substrate and adenosine triphosphate (ATP) for 60 minutes at room temperature, the kinase reaction may be stopped by the addition of 30 mM ethylenediaminetetraacetic acid (EDTA). The reaction may be performed in 384 well microtitre plates and the reaction products may be detected with the addition of streptavidin coated Donor Beads and phosphotyrosine-specific antibodies coated Acceptor Beads using the EnVision Multilabel Plate Reader after an overnight incubation at room temperature.
Target sequence in this assay (O60674 808-1132 limits assumed): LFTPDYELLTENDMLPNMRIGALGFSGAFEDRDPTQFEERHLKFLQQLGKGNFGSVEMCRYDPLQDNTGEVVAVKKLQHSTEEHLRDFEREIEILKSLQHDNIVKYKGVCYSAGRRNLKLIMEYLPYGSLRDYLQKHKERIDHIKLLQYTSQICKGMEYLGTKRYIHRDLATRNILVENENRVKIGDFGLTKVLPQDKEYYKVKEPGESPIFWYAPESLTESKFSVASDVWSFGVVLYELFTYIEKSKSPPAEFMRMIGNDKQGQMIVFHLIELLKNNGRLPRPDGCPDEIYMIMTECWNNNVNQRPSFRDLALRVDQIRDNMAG

T1 sequence (P23458 866-1154): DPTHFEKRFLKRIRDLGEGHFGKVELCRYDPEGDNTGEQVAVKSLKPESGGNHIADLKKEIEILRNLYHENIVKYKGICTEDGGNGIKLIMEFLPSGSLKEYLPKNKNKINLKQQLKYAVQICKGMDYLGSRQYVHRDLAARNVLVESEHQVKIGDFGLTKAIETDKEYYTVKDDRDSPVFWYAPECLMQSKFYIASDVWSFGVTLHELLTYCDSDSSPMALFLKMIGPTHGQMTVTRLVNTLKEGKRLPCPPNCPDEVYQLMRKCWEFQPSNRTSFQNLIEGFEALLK

Structure (SMILES) | IC50 [1] [nM] | IC50 [2] [nM] | IC50 [3] [nM] | IC50 [4] [nM]
Cn1cnc(Nc2nc(NC(CNC(=O)OC(C)(C)C)c3ccc(F)cc3)nc(N3CCOCC3)n2)c1 (single isomer, unassigned) [Example 24a, tert-Butyl [2-(4-fluorophenyl)-2-({4-[(1-methyl-1H-imidazol-4-yl)amino]-6-morpholin-4-yl-1,3,5-triazin-2-yl}amino)ethyl]carbamate] | 83 | 73 | – | –
[2H]C([2H])([2H])n1cnc(Nc2nc(NC(C)c3ncc(F)cc3F)nc(N3C([2H])([2H])C([2H])([2H])OC([2H])([2H])C3([2H])[2H])n2)c1 (single isomer, unassigned) [Example 13a, N-[1-(3,5-Difluoropyridin-2-yl)ethyl]-N′-[1-(^2H3)methyl-1H-imidazol-4-yl]-6-(^2H8)morpholin-4-yl-1,3,5-triazine-2,4-diamine] | – | – | 180 | –
Cn1cnc(Nc2nc(NC(CNC(=O)OC(C)(C)C)c3ccc(F)cc3)nc(N3CCOCC3)n2)c1 (single isomer, unassigned) [Example 24b, tert-Butyl [2-(4-fluorophenyl)-2-({4-[(1-methyl-1H-imidazol-4-yl)amino]-6-morpholin-4-yl-1,3,5-triazin-2-yl}amino)ethyl]carbamate] | 1020 | 1710 | – | –
Cn1cnc(Nc2nc(NC(c3ccc(F)cc3)c3nccn3C)nc(N3CCOCC3)n2)c1 (single isomer, unassigned) [Example 25b, N-[(4-Fluorophenyl)(1-methyl-1H-imidazol-2-yl)methyl]-N′-(1-methyl-1H-imidazol-4-yl)-6-morpholin-4-yl-1,3,5-triazine-2,4-diamine] | 30000 | > 30000 | – | –
[2H]C([2H])([2H])n1cnc(Nc2nc(NC(C)c3ncc(F)cc3F)nc(N3CCOCC3)n2)c1 (single isomer, unassigned) [Example 12a, N-[1-(3,5-Difluoropyridin-2-yl)ethyl]-N′-[1-(^2H3)methyl-1H-imidazol-4-yl]-6-morpholin-4-yl-1,3,5-triazine-2,4-diamine] | – | – | 138 | –
C[C@H](Nc1nc(Nc2cn(C)cn2)nc(N2CCOCC2)n1)c1ccc(F)cc1 [Example 30, N-[(1S)-1-(4-fluorophenyl)ethyl]-N′-(1-methyl-1H-imidazol-4-yl)-6-morpholin-4-yl-1,3,5-triazine-2,4-diamine] | 65 | – | – | < 3
[2H]C([2H])([2H])n1cnc(Nc2nc(NC(C)c3ncc(F)cc3F)nc(N3CCOCC3)n2)c1 (single isomer, unassigned) [Example 12b, N-[1-(3,5-Difluoropyridin-2-yl)ethyl]-N′-[1-(^2H3)methyl-1H-imidazol-4-yl]-6-morpholin-4-yl-1,3,5-triazine-2,4-diamine] | – | – | < 3 | –
[2H]C1([2H])OC([2H])([2H])C([2H])([2H])N(c2nc(Nc3cn(C)cn3)nc(NC(C)c3ncc(F)cc3F)n2)C1([2H])[2H] (single isomer, unassigned) [Example 11a, N-[1-(3,5-Difluoropyridin-2-yl)ethyl]-N′-(1-methyl-1H-imidazol-4-yl)-6-(^2H8)morpholin-4-yl-1,3,5-triazine-2,4-diamine] | 780 | 986 | – | –
[2H]C1([2H])OC([2H])([2H])C([2H])([2H])N(c2nc(Nc3cn(C)cn3)nc(NC(C)c3ncc(F)cc3F)n2)C1([2H])[2H] (single isomer, unassigned) [Example 11b, N-[1-(3,5-Difluoropyridin-2-yl)ethyl]-N′-(1-methyl-1H-imidazol-4-yl)-6-(^2H8)morpholin-4-yl-1,3,5-triazine-2,4-diamine] | 15 | 21 | – | –
[2H]C([2H])([2H])n1cnc(Nc2nc(NC(C)c3ncc(F)cc3F)nc(N3C([2H])([2H])C([2H])([2H])OC([2H])([2H])C3([2H])[2H])n2)c1 (single isomer, unassigned) [Example 13b, N-[1-(3,5-Difluoropyridin-2-yl)ethyl]-N′-[1-(^2H3)methyl-1H-imidazol-4-yl]-6-(^2H8)morpholin-4-yl-1,3,5-triazine-2,4-diamine] | – | – | < 3 | –
Cn1cnc(Nc2nc(NC(c3ccc(F)cc3)C3CCCC3)nc(N3CCOCC3)n2)c1 (centres unmarked) [Example 27, N-[Cyclopentyl(4-fluorophenyl)methyl]-N′-(1-methyl-1H-imidazol-4-yl)-6-morpholin-4-yl-1,3,5-triazine-2,4-diamine] | 1980 | 966 | – | –
C[C@H](Nc1nc(Nc2cn(C)cn2)nc(N2CCOCC2)n1)c1ccc(Cl)cc1 [Example 29, N-[(1S)-1-(4-Chlorophenyl)ethyl]-N′-(1-methyl-1H-imidazol-4-yl)-6-morpholin-4-yl-1,3,5-triazine-2,4-diamine] | 510 | – | – | 4
